Results reported in US11427605B2, “Crystalline forms of 5-chloro-N4-[-2-(dimethylphosphoryl) phenyl]-N2-{2-methoxy-4-[4-(4-methylpiperazin-1-yl) piperidin-1-yl] phenyl} pyrimidine-2,4-diamine” (ARIAD Pharmaceuticals, Inc., priority 2014, dated 2022).
Where two headings read alike, the source gives them in different places.

Tests used:
[1] = Remeasurement by XRPD after storage at ambient conditions; assay type: physicochemical
Description: For each experiment, the anti-solvent was added to each solvent vial, with a solvent to anti-solvent ratio of 1:0.25. In the cases where no precipitation occurred, this ratio was increased to 1:1, and if again no precipitation occurred the ratio was increased to 1:4, with a waiting time of 60 minutes between the additions (up to the third addition) and 35 minutes between the third addition and fourth addition. When no crystallization occurred or not enough solids precipitated for separation, samples were kept at 5° C. for 17 hours. The precipitated solids were separated from the liquids by centrifugation and decantation. When decantation could not be applied, the liquid was carefully removed using Pasteur's pipettes. The solids were dried at 200 mbar for 17 hours and analyzed by XRPD and digital imaging. In the cases where no precipitation occurred, the solvents were evaporated at 200 mbar for 17 hours prior to lowering the vacuum to 5 mbar. All obtained solids were analyzed by XRPD and digital imaging. The measuring plates containing the final solid were stored at ambient temperature for 5 weeks. The solid form was assessed again by XRPD. The arrows in Table 18 indicate if the form changed during storage.
A total of 68 slurry experiments were performed with brigatinib both at room temperature (20° C.) and 40° C., using 34 solvents. In all cases, a solvent volume of 250 μL was used. The slurries were stirred for two weeks. At the end of the slurry time, the vials were centrifuged and solids and mother liquids separated. The solids were analyzed wet and dry by XRPD and digital imaging. The measuring plates were then stored at ambient conditions for 3-4 weeks and another XRPD was obtained of the solid, any form change is shown by an arrow.
After completion of the cycling program, the solids were separated from the mother liquids by centrifugation, dried under 200 mbar for 48 hours (2-ethoxyethanol for 283 hours) and analyzed by XRPD and digital imaging. For the applied crystallization conditions and corresponding obtained solid forms, see Table 24. Solid form (or mixture) following the arrow (→) was obtained upon remeasurement by XRPD after storage of the measuring plates at ambient conditions for 5 weeks.
In Table 27, the occurrence of solid forms of brigatinib is given, together with the crystallization methods from which they crystallized and the related solvents. The table provides the results of over 600 experiments with solid forms measured by XRPD wet and/or dry (wet and dry count as separate experiments). In eight cases, no form assignment was made due to low yield. The solid form(s) following the arrow was/were obtained upon remeasurement by XRPD after storage of the measuring plates at ambient conditions for several weeks (2-5 weeks).

[2] = not given; remark: listed apart in the source
[3] = not given; remark: listed apart in the source
[4] = Dynamic vapor sorption (DVS); assay type: physicochemical
Description: In a […] vapor sorption (DVS) experiment with Form A, the sample was first dried at 0% RH for 6 hours. Then, the relative humidity was cycled from 5% to 95% RH (sorption), then to 5% RH (desorption) at a constant temperature of 25° C., with a hold time of 60 minutes per step.
In three DVS experiments, the relative humidity was varied as follows:
Expt. 4: 0% for 6 h→5% for 1 h→15% for 1 h→25-85% gradient over 2 h→95 for 5 h RH

[5] = Variable humidity XRPD; assay type: physicochemical; conditions: 30° C.
Description: The temperature variation rate was 10° C./min.
The relative humidity was increased from the starting amount, brought up to the maximum, then dried back to the minimum value. The data collection time was 41 min at each step, time starting after equilibration of the relative humidity.
The peaks shifts were reversible at RH of about 30%. A sample of Form A was then exposed to 80% RH for 15 h. The peaks shifts had occurred after 90 min, and the extent of the shifts remained constant throughout the exposure at 80% RH for 15 h. Upon return to 10% RH, the peaks shifted to their original position. To investigate the amount of water adsorbed, a new sample of Form A was exposed for 2 h at 80% and a TGMS of this sample was measured.
For Form B, the relative humidity was measured at 30° C. The RH % values measured were 10, 30, 50, 60, 65, 70, 75, and 80%. […] At 80% RH the conversion to Form C was completed. Upon desorption, Form C dehydrates to Form B, starting at about 30% RH. At 10% RH the conversion to Form B was completed.
For Form C, a hydrate, the relative humidity was measured at 30° C. The experiment was performed starting at the maximum RH and dehydrated, then rehydrated back up to the maximum value. The RH % values measured were 10, 15, 20, 25, 30, 35, 40, 60, and 80%. Upon desorption, Form C dehydrated to Form B, starting at about 25% RH. At 10% RH, the conversion to Form B was complete. Upon sorption, Form B converted to Form C, starting at about 60% RH. At 80% RH the conversion to Form C was complete. The results are consistent with the corresponding experiments of Form B.
For Form D, a hydrate, the relative humidity was measured at 30° C. The experiment was performed starting at the maximum RH and dehydrated, then rehydrated back up to the maximum value. The RH % values measured were 10, 15, 20, 25, 30, 35, 40, 60, and 80%. […] Form C dehydrated to Form B, starting at about 20% RH. At 10% RH, the conversion to Form B was complete. Upon sorption, Form B converted to Form C, starting at about 40% RH. At 80% RH, the conversion to Form C was complete.

[6] = Vapor diffusion onto solids experiments; assay type: physicochemical; conditions: room temperature, two weeks
Description: For the 34 vapor diffusion onto solids experiments, amorphous brigatinib was prepared by grinding the starting material for 4 hours. The vials containing the amorphous brigatinib were left open and placed in closed 40 mL vials containing 2 mL of solvent (see Table 21). The amorphous brigatinib was exposed to solvent vapors at room temperature for two weeks. At the end of the experiment time, the solids were harvested wet and dry and analyzed by XRPD and digital imaging. For the applied crystallization conditions and corresponding obtained solid forms see Table 22.

[7] = VT-XRPD, sample started as the labelled form
[8] = sample started as the labelled form

**Q.** With `COc1cc(N2CCC(N3CCN(C)CC3)CC2)ccc1Nc1ncc(Cl)c(Nc2ccccc2P(C)(C)=O)n1` [A+L, brigatinib] as the molecule, how does the “Solid form after storage (XRPD)” value ([1]; mixtures A+L, ambient conditions for 3 weeks) read?
**A.** still a mixture of A+L

**Q.** For `COc1cc(N2CCC(N3CCN(C)CC3)CC2)ccc1Nc1ncc(Cl)c(Nc2ccccc2P(C)(C)=O)n1` [Form B, brigatinib], which “Solid form conversion in slurry with Form A (XRPD, wet)” value (all organic solvents and water at 37° C., sampled at 2, 4 and 14 days) is on record?
**A.** converted to Form A

**Q.** And the “Solid form conversion in slurry with Form A (XRPD, wet)” value (water at 25° C. (aqueous environment), 2 and 4 days)?
**A.** converted to Form D

**Q.** And the “Solid form after humidity exposure” value ([2]; 90% RH for one day)?
**A.** converted to a mixture of Forms C and D

**Q.** What about the “Solid form conversion on slurrying (XRPD, wet)” value ([2]; room temperature, water, HCl buffer of pH 1.0) of the same molecule?
**A.** converted to the heptahydrate Form D after 45 min

**Q.** What about the “Temperature at which (partial) conversion to Form A was observed” value [3, 7] of the same molecule?
**A.** 150 °C

**Q.** What about the “Temperature at which conversion to Form A was complete” value [3, 7] of the same molecule?
**A.** 155 °C

**Q.** What about the “Temperature of solid-solid transition to Form A” value ([3]; ambient humidity, increasing temperature, not reversible) of the same molecule?
**A.** about 150 °C

**Q.** What about the “Solid form after DVS cycle (XRPD)” value ([4]; Expt. 1 (5%→95%→65% RH)) of the same molecule?
**A.** hydrated Form C

**Q.** And the “Water adsorbed during sorption” value ([4]; Expt. 1 (5%→95%→65% RH), between 45-95% RH)?
**A.** 2.26 molecules of water

**Q.** And the “Change in mass during desorption after about 75% RH” value ([4]; Expt. 2)?
**A.** about 5.2%

**Q.** And the “Gained mass during desorption until about 25% RH” value ([4]; Expt. 2)?
**A.** 4.2%

**Q.** And the “Mass increase at 85% RH during desorption” value ([4]; Expt. 2)?
**A.** 17.4%

**Q.** What about the “Maximum change in mass as water molecules” value ([4]; Expt. 2) of the same molecule?
**A.** 5.6 water molecules

**Q.** What about the “Water molecules during desorption after about 75% RH” value ([4]; Expt. 2) of the same molecule?
**A.** about 1.7 water molecules

**Q.** And the “Water molecules during desorption until about 25% RH” value ([4]; Expt. 2)?
**A.** 1.4 water molecules

**Q.** What about the “Solid form after DVS cycle (XRPD)” value ([4]; Expt. 2 (5%→95%→5% RH)) of the same molecule?
**A.** mixture of Forms B and C

**Q.** And the “Mass change, first sorption step” value ([4]; Expt. 2 (5%→95%→5% RH), between 45-85% RH)?
**A.** 6.45%

**Q.** What about the “Water molecules, first sorption step” value ([4]; Expt. 2, between 45-85% RH) of the same molecule?
**A.** 2.1 water molecules

**Q.** What about the “Total change in mass, second sorption step” value ([4]; Expt. 2, between 85% and 95% RH) of the same molecule?
**A.** 16.7%

**Q.** And the “Total change in mass at 95% RH” value ([4]; Expt. 3)?
**A.** 15.88%

**Q.** And the “Total change in mass at 95% RH as water molecules” value ([4]; Expt. 3)?
**A.** 5.15 water molecules

**Q.** And the “Solid form after DVS cycle (XRPD)” value ([4]; Expt. 3 (5%→95% RH))?
**A.** Forms B+C

**Q.** And the “Change in mass, first step” value ([4]; Expt. 3 (5%→95% RH), between 45-85% RH)?
**A.** 5.59%

**Q.** What about the “Water molecules, first step” value ([4]; Expt. 3, between 45-85% RH) of the same molecule?
**A.** 1.8 water molecules

**Q.** What about the “Maximum change in mass as water molecules” value ([4]; Expt. 4) of the same molecule?
**A.** 7.2 water molecules

**Q.** What about the “Solid form after DVS cycle (XRPD)” value ([4]; Expt. 4) of the same molecule?
**A.** Forms C+D

**Q.** And the “Maximum change in mass” value ([4]; Expt. 4 (longer equilibration; up to 95% RH for 5 h))?
**A.** 22.2%

**Q.** And the Hygroscopicity ([4]; general statement)?
**A.** hygroscopic

**Q.** What about the “Humidity level at which Form B converts to the hydrated Forms C and D” value ([5]; reversible) of the same molecule?
**A.** above 60 % RH

**Q.** What about the “RH at which Form B starts to convert to hydrated Form C (sorption)” value [5, 8] of the same molecule?
**A.** about 65 % RH

**Q.** What about the “RH at which Form C starts to dehydrate to Form B (desorption)” value [5, 8] of the same molecule?
**A.** about 30 % RH

**Q.** And the “RH at which conversion to Form B was complete (desorption)” value [5, 8]?
**A.** 10 % RH

**Q.** What about the “RH at which conversion to Form C was complete (sorption)” value [5, 8] of the same molecule?
**A.** 80 % RH

**Q.** For `COc1cc(N2CCC(N3CCN(C)CC3)CC2)ccc1Nc1ncc(Cl)c(Nc2ccccc2P(C)(C)=O)n1` [Form E, brigatinib], which “Solid form after storage (XRPD)” value ([1]; several weeks at ambient temperature) is on record?
**A.** may revert to Form A

**Q.** For `COc1cc(N2CCC(N3CCN(C)CC3)CC2)ccc1Nc1ncc(Cl)c(Nc2ccccc2P(C)(C)=O)n1` [Form F, brigatinib], which “Solid form after storage (XRPD)” value ([1]; heating or storage at ambient conditions for 8 weeks) is on record?
**A.** desolvated to give Form A

**Q.** For `COc1cc(N2CCC(N3CCN(C)CC3)CC2)ccc1Nc1ncc(Cl)c(Nc2ccccc2P(C)(C)=O)n1` [Form G, brigatinib], which “Solid form after storage (XRPD)” value ([1]; ambient conditions for 5 weeks) is on record?
**A.** had transformed to Form A

**Q.** Which “Solid form after storage (XRPD)” value ([1]; ambient conditions for 1-3 weeks) does the source give for `COc1cc(N2CCC(N3CCN(C)CC3)CC2)ccc1Nc1ncc(Cl)c(Nc2ccccc2P(C)(C)=O)n1` [Form H, brigatinib] here?
**A.** had partially transformed to Form A

**Q.** Which “Solid form after storage (XRPD)” value ([1]; mixture of Forms A+J, ambient conditions for 3 weeks) does the source give for `COc1cc(N2CCC(N3CCN(C)CC3)CC2)ccc1Nc1ncc(Cl)c(Nc2ccccc2P(C)(C)=O)n1` [Forms A+J, brigatinib] here?
**A.** still a mixture of Forms A+J

**Q.** With `COc1cc(N2CCC(N3CCN(C)CC3)CC2)ccc1Nc1ncc(Cl)c(Nc2ccccc2P(C)(C)=O)n1` [Forms A+K, brigatinib] as the molecule, how does the “Solid form after storage (XRPD)” value ([1]; mixture of Forms A+K, ambient conditions for 3 weeks) read?
**A.** still a mixture of Forms A+K

**Q.** Which “Form dry (XRPD)” value ([6]; Chloroform vapors, no solids after 2 weeks) does the source give for `COc1cc(N2CCC(N3CCN(C)CC3)CC2)ccc1Nc1ncc(Cl)c(Nc2ccccc2P(C)(C)=O)n1` [amorphous brigatinib] here?
**A.** A + Am

**Q.** And the “Form dry (XRPD)” value ([6]; Dichloromethane vapors, no solids after 2 weeks)?
**A.** Am

**Q.** And the “Form dry (XRPD)” value ([6]; Water vapors)?
**A.** A + B + C
